Data reported in ChEMBL document CHEMBL5390257, “Fused Tetrahydroquinolines Are Interfering with Your Assay” (J Med Chem, 2023).

Experiments:
[1] = Inhibition of MurA (unknown origin) preincubated for 30 mins followed by substrate addition and measured after 8 mins by spectrometric analysis; parameters: species or system Bacteria
[2] = biological target: SH3 and multiple ankyrin repeat domains protein 3 (Mus musculus, UniProt Q4ACU6); assay: Binding affinity to His-tagged murine Shank3 PDZ domain assessed as inhibition constant by fluorescence polarization assay
Chain of SH3 and multiple ankyrin repeat domains protein 3 (Q4ACU6 whole entry, the tested form may be a part): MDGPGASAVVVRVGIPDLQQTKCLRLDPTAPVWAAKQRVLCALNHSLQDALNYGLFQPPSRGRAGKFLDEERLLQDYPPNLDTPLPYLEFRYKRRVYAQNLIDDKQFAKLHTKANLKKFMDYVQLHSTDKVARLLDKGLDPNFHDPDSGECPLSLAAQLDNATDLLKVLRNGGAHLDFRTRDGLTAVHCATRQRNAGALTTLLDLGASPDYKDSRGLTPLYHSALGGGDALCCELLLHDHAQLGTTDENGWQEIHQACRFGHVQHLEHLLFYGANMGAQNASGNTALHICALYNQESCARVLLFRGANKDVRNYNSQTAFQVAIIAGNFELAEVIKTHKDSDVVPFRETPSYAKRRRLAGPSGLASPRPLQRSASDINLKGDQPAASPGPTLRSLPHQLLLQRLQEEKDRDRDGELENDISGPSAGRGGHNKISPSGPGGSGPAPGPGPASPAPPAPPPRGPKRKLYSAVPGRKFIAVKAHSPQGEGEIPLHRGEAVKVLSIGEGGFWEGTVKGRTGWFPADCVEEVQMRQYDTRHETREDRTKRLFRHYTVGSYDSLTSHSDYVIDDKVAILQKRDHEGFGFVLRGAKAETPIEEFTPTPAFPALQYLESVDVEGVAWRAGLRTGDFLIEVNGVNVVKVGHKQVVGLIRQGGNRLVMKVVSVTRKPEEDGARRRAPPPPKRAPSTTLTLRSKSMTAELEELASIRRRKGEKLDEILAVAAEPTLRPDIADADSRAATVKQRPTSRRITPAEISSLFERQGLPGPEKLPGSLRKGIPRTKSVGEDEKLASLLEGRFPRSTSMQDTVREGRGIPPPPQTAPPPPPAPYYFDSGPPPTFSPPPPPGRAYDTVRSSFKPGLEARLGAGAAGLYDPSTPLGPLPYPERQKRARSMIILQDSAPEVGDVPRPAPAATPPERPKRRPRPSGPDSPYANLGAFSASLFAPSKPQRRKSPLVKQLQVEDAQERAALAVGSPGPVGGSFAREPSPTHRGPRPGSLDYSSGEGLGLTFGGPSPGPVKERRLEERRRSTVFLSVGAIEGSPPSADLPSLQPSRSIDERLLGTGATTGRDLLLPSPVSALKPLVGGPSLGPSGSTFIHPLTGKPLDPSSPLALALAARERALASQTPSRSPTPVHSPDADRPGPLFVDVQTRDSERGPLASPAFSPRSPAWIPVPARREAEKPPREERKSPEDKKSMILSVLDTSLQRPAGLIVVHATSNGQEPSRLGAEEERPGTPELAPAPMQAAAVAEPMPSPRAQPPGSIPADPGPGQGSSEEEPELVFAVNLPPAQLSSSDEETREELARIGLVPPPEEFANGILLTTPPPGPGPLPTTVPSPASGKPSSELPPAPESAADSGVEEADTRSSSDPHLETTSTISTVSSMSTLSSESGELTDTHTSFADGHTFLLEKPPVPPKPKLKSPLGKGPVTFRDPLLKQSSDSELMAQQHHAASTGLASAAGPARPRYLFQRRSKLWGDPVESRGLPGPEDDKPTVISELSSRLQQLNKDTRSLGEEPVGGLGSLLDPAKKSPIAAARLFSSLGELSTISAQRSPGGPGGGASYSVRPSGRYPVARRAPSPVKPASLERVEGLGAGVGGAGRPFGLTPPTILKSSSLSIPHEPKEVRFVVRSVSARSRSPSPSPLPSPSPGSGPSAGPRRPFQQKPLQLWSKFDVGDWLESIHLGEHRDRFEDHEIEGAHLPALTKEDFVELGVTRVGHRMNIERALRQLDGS

[3] = Binding affinity to Yellow fever virus 17D recombinant NS5 N-terminal capping enzyme domain expressed in Escherichia coli BL21 (DE3) assessed as inhibition constant incubated for 1 hr by high-throughput screening fluorescence polarization assay
[4] = biological target: Serine/threonine-protein kinase PLK1 (Homo sapiens, UniProt P53350); assay: Inhibition of GST-tagged recombinant PLK1 (unknown origin) using 5-carboxyfluorescein-KKRNRRLSVA-OH peptide as substrate incubated for 3 hrs in presence of ATP by HTS TR-FRET assay
Chain of Serine/threonine-protein kinase PLK1 (P53350 whole entry): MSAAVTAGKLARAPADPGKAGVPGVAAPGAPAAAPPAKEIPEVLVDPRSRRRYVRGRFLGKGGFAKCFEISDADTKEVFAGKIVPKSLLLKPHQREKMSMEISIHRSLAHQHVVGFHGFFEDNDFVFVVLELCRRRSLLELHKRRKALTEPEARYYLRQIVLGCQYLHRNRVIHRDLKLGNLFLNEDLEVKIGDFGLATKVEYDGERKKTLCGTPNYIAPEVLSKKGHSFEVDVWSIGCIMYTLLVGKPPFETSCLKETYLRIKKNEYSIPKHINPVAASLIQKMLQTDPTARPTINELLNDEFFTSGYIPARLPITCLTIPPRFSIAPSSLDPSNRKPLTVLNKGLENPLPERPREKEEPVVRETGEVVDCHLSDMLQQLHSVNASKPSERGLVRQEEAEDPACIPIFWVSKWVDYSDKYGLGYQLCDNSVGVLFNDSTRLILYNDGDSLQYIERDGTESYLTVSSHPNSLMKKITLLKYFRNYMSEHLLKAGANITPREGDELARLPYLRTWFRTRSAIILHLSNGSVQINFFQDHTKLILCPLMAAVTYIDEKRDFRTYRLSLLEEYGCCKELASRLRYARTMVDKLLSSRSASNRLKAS

[5] = biological target: T1, Tyrosine-protein phosphatase non-receptor type 7 (Homo sapiens) (UniProt P35236); assay: Inhibition of PTPN7 (unknown origin) using pNPP as substrate assessed as fraction of control at 100 uM by high-throughput screening assay relative to control
T1 sequence (whole entry): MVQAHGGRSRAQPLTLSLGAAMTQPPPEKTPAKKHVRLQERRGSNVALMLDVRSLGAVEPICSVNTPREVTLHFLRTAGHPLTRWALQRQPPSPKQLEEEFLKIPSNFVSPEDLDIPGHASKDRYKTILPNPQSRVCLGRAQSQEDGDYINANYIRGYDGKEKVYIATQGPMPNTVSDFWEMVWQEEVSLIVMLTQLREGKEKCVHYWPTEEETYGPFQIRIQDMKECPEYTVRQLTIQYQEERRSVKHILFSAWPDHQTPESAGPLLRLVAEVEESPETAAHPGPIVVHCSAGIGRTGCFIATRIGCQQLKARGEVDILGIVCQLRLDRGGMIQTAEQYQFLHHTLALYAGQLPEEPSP

[6] = biological target: T2, Tyrosine-protein phosphatase non-receptor type 5 (Homo sapiens) (UniProt P54829); assay: Inhibition of PTPN5 (unknown origin) using pNPP as substrate assessed as fraction of control at 100 uM by high-throughput screening assay relative to control
T2 sequence (whole entry): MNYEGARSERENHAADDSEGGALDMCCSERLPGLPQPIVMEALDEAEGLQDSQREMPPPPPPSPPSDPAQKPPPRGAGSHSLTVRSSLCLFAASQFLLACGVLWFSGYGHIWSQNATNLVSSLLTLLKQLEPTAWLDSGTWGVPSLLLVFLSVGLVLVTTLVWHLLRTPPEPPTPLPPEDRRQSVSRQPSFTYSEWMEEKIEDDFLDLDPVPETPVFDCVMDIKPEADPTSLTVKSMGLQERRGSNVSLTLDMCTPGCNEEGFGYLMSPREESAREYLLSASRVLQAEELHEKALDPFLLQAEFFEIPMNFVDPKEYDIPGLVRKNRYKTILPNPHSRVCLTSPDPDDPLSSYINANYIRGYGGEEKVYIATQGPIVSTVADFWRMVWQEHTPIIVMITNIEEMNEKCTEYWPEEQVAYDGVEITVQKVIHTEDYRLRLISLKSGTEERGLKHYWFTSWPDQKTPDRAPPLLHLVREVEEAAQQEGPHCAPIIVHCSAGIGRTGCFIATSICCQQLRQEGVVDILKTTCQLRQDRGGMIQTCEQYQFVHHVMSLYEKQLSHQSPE

[7] = biological target: T3, Receptor-type tyrosine-protein phosphatase R (Homo sapiens) (UniProt Q15256); assay: Inhibition of PTPRR (unknown origin) using pNPP as substrate assessed as fraction of control at 100 uM by high-throughput screening assay relative to control
T3 sequence (whole entry): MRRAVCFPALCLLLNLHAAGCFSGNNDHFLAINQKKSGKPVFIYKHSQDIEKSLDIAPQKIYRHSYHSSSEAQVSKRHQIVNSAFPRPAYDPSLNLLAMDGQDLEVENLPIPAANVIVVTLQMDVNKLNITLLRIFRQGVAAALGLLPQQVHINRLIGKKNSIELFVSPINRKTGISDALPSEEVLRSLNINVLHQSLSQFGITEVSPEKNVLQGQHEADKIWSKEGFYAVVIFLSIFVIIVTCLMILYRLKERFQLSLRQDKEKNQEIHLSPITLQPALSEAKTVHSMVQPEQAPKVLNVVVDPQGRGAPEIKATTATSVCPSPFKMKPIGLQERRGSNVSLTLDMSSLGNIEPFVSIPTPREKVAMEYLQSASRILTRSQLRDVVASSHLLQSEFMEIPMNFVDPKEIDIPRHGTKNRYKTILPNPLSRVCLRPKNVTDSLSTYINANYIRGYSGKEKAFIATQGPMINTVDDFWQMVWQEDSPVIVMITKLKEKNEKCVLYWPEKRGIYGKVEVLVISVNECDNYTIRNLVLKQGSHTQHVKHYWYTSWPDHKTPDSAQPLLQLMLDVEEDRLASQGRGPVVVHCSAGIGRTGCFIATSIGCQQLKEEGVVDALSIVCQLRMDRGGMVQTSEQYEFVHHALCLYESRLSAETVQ

[8] = biological target: T4, Tyrosine-protein phosphatase non-receptor type 1 (Homo sapiens) (UniProt P18031); assay: Inhibition of PTP1B (unknown origin) using pNPP as substrate assessed as fraction of control at 100 uM by high-throughput screening assay relative to control
T4 sequence (whole entry): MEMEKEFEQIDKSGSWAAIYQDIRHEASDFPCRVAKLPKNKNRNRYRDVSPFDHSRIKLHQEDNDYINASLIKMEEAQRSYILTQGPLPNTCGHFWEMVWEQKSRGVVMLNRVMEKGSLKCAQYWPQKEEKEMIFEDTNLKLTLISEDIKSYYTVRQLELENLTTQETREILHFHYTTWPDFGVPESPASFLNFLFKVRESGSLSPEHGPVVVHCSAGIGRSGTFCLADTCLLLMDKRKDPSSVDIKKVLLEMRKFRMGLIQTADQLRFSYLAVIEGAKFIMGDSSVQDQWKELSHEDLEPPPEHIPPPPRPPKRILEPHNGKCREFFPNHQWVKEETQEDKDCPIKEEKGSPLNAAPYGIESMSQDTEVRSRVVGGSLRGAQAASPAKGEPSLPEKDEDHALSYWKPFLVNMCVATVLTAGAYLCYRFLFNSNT

[9] = biological target: T5, M-phase inducer phosphatase 2 (Homo sapiens, UniProt P30305); assay: Inhibition of full-length 6His/GST-tagged recombinant human CDC25B using OMFP as substrate incubated for 60 mins by fluorescence based analysis
T5 sequence (P30305 whole entry): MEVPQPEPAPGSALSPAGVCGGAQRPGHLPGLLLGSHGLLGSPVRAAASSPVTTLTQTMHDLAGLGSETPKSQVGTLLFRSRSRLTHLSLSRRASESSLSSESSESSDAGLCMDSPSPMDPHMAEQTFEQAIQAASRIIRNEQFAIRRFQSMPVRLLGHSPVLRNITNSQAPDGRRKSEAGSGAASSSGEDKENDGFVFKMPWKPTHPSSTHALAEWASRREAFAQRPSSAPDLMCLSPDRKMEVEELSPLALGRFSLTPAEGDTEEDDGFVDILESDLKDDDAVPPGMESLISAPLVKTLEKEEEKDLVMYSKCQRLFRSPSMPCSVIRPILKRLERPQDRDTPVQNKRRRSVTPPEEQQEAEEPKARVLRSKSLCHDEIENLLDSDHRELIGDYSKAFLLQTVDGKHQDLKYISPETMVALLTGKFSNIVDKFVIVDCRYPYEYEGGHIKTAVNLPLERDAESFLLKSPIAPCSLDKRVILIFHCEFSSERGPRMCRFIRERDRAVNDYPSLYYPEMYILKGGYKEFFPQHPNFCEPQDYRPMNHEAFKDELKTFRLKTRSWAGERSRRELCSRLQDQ

[10] = biological target: T6, Tyrosine-protein phosphatase non-receptor type 1 (Homo sapiens, UniProt P18031); assay: Inhibition of human recombinant PTP1B using OMFP as substrate incubated for 60 mins by fluorescence based analysis
T6 sequence (P18031 whole entry): T4 sequence (whole entry)

[11] = biological target: Diacylglycerol kinase alpha (Sus scrofa, UniProt P20192); assay: Inhibition of GST-fused pig DGK alpha expressed in Sf9 insect cells incubated for 2 hrs by HTS ADP-Glo DGK assay
Chain of Diacylglycerol kinase alpha (P20192 whole entry, the tested form may be a part): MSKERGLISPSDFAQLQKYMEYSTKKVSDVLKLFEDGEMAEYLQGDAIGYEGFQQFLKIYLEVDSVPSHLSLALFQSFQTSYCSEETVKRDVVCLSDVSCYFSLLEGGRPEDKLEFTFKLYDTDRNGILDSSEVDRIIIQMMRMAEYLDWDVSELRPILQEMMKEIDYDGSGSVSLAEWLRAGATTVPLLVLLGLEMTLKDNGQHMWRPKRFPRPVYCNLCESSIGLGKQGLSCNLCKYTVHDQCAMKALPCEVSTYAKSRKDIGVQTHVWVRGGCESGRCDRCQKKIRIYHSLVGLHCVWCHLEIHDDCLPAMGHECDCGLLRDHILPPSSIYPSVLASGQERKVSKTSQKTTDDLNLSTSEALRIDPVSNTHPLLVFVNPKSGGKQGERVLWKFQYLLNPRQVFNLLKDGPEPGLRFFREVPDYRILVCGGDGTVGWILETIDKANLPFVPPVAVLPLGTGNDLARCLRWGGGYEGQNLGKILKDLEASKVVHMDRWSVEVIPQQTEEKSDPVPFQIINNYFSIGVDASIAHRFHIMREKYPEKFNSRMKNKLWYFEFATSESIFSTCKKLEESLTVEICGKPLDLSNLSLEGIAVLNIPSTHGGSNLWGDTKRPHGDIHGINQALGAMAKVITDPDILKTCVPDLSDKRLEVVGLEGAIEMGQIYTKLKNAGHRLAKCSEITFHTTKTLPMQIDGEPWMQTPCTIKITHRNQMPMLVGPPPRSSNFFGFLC

[12] = Inhibition of Helicobacter pylori recombinant IspD domain of IspDF by HTS based photometric assay

## CNc1ccc2c(c1)C1C=CCC1C(C(=O)O)N2 (stereo not drawn)
[1]
  IC50: < 5 µM

## O=C(O)C1Nc2ccc(OC(F)(F)F)cc2C2C=CCC12 (stereo not drawn)
[1]
  IC50: < 5 µM

## O=C(O)C1Nc2ccc(F)cc2C2C=CCC12 (stereo not drawn)
[1]
  IC50: < 5 µM

## NC(=O)c1cccc2c1NC(C(=O)O)C1CC=CC21 (stereo not drawn)
[1]
  IC50: < 5 µM

## COc1ccc2c(c1)C1C=CCC1C(C(=O)O)N2 (stereo not drawn)
[1]
  IC50: < 5 µM

## O=C(O)c1ccc2c(c1)[C@@H]1C=CC[C@@H]1[C@H](C(=O)O)N2
[2]
  Ki: 70 µM

## O=C(O)C1Nc2c(I)cccc2C2C=CCC12 (stereo not drawn)
[3]
  Ki: 7.1 µM

## CC(=O)Nc1ccc(OC(=O)c2cccc3c2NC(C(=O)O)C2CC=CC32)cc1 (stereo not drawn)
[1]
  IC50: < 5 µM

## O=C(O)c1ccc2c(c1)[C@@H]1C=CC[C@@H]1[C@H](c1ccccn1)N2
[4]
  IC50: 17 µM

## CC(=O)Nc1ccc2c(c1)NC(C(=O)O)C1CC=CC21 (stereo not drawn)
[1]
  IC50: < 5 µM

## O=C(O)C1Nc2ccc(F)c(Cl)c2C2C=CCC12 (stereo not drawn)
[1]
  IC50: < 5 µM

## O=C(O)C1Nc2ccc(Br)cc2C2C=CCC12 (stereo not drawn)
[5]
  fold change (FC): 0.41
[6]
  fold change (FC): 0.73
[7]
  fold change (FC): 0.08
[8]
  fold change (FC): 0.23

## NC(=O)c1ccc2c(c1)C1C=CCC1C(C(=O)O)N2 (stereo not drawn)
[1]
  IC50: < 5 µM

## O=C(O)c1ccc2c(c1)NC(C(=O)O)C1CC=CC21 (stereo not drawn)
[1]
  IC50: < 5 µM

## O=C(O)C1Nc2c(F)cccc2C2C=CCC12 (stereo not drawn)
[5]
  fold change (FC): 0.41
[6]
  fold change (FC): 0.73
[7]
  fold change (FC): 0.08
[8]
  fold change (FC): 0.23

## O=C(O)c1cccc2c1C1C=CCC1C(C(=O)O)N2 (stereo not drawn)
[1]
  IC50: < 5 µM

## O=C(O)C1Nc2ccc(Cl)cc2C2C=CCC12 (stereo not drawn)
[9]
  IC50: 2.5 µM

## O=C(O)c1ccc([N+](=O)[O-])c2c1N[C@@H](C(=O)O)[C@H]1CC=C[C@@H]21
[2]
  Ki: 17 µM

## CCOC(=O)C1Nc2cccc(C(=O)O)c2C2C=CCC12 (stereo not drawn)
[1]
  IC50: < 5 µM

## O=C(O)c1ccc2c(c1)C1C=CCC1C(C(=O)O)N2 (stereo not drawn)
[5]
  fold change (FC): 0.41
[6]
  fold change (FC): 0.73
[1]
  IC50: < 5 µM
[9]
  IC50: 2.5 µM
[7]
  fold change (FC): 0.08
[10]
  IC50: 6.6 µM
[8]
  fold change (FC): 0.23

## O=C(O)C1Nc2c(O)cccc2C2C=CCC12 (stereo not drawn)
[5]
  fold change (FC): 0.41
[6]
  fold change (FC): 0.73
[7]
  fold change (FC): 0.08
[8]
  fold change (FC): 0.23

## CC(=O)c1ccc2c(c1)C1C=CCC1C(C(=O)O)N2 (stereo not drawn)
[5]
  fold change (FC): 0.41
[6]
  fold change (FC): 0.73
[1]
  IC50: < 5 µM
[11]
  IC50: 6 µM
[7]
  fold change (FC): 0.08
[8]
  fold change (FC): 0.23

## O=C(O)c1cccc2c1NC(C(=O)O)C1CC=CC21 (stereo not drawn)
[5]
  fold change (FC): 0.41
[6]
  fold change (FC): 0.73
[1]
  IC50: < 5 µM
[9]
  IC50: 2.5 µM
[7]
  fold change (FC): 0.08
[8]
  fold change (FC): 0.23

## CN(C)C(=O)c1ccc2c(c1)C1C=CCC1C(C(=O)O)N2 (stereo not drawn)
[1]
  IC50: < 5 µM

## O=C(O)C1Nc2ccc(Nc3ccccc3)cc2C2C=CCC12 (stereo not drawn)
[1]
  IC50: < 5 µM

## O=C(O)C1Nc2ccccc2C2C=CCC12 (stereo not drawn)
[5]
  fold change (FC): 0.41
[6]
  fold change (FC): 0.73
[7]
  fold change (FC): 0.08
[8]
  fold change (FC): 0.23

## O=C(O)C1Nc2cc(-c3cccnc3)ccc2C2C=CCC12 (stereo not drawn)
[1]
  IC50: < 5 µM

## Cc1ccc2c(c1)C1C=CCC1C(C(=O)O)N2 (stereo not drawn)
[1]
  IC50: < 5 µM

## O=C(O)C1Nc2ccc(Oc3ccccc3)cc2C2C=CCC12 (stereo not drawn)
[12]
  IC50: 2.4 µM

## COC(=O)c1cccc2c1NC(C(=O)O)C1CC=CC21 (stereo not drawn)
[1]
  IC50: < 5 µM
